# How the values were obtained:
# K18-hACE2 mice = conditions: mouse, in vivo
# Syrian hamsters = conditions: hamster, in vivo
substance,measurement,setting,value
BetaCoV/Wuhan/IVDC-HB-01/2019 [SARS-CoV-2 WT],body weight loss,K18-hACE2 mice,associated with weight loss
same,clinical signs,K18-hACE2 mice,only WT exhibit clinical signs
same,animals that succumbed to the disease or reached termination criteria,Syrian hamsters,75%
same,mean bodyweight,Syrian hamsters,84%

# Source: patent US20260124293A1 (priority 2022, published 2026)
